{
  "source": "paper PMC5489165",
  "about": "“Identification of benzazole compounds that induce HIV-1 transcription” (PLoS ONE, 2017)",
  "key": {"[1]": {"tested_on": "HIV-1 Gag (p24) in ACH-2 cells", "assay": "Intracellular staining for HIV Gag in ACH-2 cells (flow cytometry)", "format": "cell-based", "settings": "for Intracellular Gag, percentage of positive cells: 16 h, 30 μM Cmpd 1 or Cmpd 2, 10 μM SAHA, 1 mM JQ1 or 10 ng/ml PMA, single experiment (Fig 4A)", "description": "ACH-2 cells were treated as indicated and HIV-1 expression was monitored by intracellular staining for p24. Approximately, 1 × 10^6 cells were collected and washed in PBS before fixing by resuspending in 100 μl of BD Cytofix/Cytoperm (BD Biosciences, San Jose, CA) at 4°C for at least 20 min. Cells were then harvested by centrifugation and resuspended in 100 μl BD PermWash (50 mM NH4Cl, 5 mM EDTA, 0.1% saponin, 0.5% BSA, PBS and 1 mg/ml of anti-HIV-Gag PE (Clone KC57, Beckman Coulter, Brea CA). Cells were stained for 30 min, washed with the PermWash, and resuspended in FACS buffer (2 mM EDTA, 0.5% BSA, 1% paraformaldehyde in PBS). Cells were analyzed by flow cytometry using a FACSCalibur instrument (BD Biosciences). Flow cytometry was performed at the Boston University School of Medicine flow cytometry core.\nFig 4 Induction of HIV-1 expressing cells following treatment with latency reversing agents. ACH-2 cells were not treated or treated with a final concentration of 30 μM Cmpd 1 or Cmpd 2, 10 μM SAHA, 1 mM JQ1 or 10 ng/ml PMA for 16 h. Cells were stained using anti-HIV-Gag-PE and analyzed by flow cytometry. Numbers within the profiles represent the percentage of positive cells. These profiles are from a single experiment. B) Data from four independent experiments. Y-axis is mean of % p24 positive cells. * Cmpd 1 p-value […] compared to other treatments using a two-tailed t-test. TEXT PRINTED IN THE PICTURE: (A) Cmpd 1: Intracellular Gag: 65.6% | (A) Cmpd 2: Intracellular Gag: 33.9% | (A) SAHA: Intracellular Gag: 23.0% | (A) JQ1: Intracellular Gag: 16.7% | (A) PMA: Intracellular Gag: 94.2%"}, "[2]": {"tested_on": "HIV-1 LTR", "assay": "HIV LTR-driven Rluc reporter in HeLa cells", "format": "cell-based", "settings": "transfected HeLa cells, 24 h", "from_the_text": "The vector pGL4.77[hRlucP/Hygro] encoding a Renilla luciferase gene including a PEST destabilization sequence, was purchased from Promega (Madison, WI). HIV-1 cDNA was generated from HIVIIIB virus using PureLink® Viral RNA/DNA Mini Kit (Invitrogen). The HIV-1 core promoter region (nucleotides -105 to 60) was amplified from HIVIIIB cDNA using primers designed with NheI (forward: 5ʹ-GCTAGCGGGACTTTCCGCTGGG-3ʹ) and XhoI (reverse: 5ʹ-CTCGAGAGTGGGTTCCCTAGTTAGCCA-3ʹ) flanking restriction site sequences. DNA fragments were generated using Platinum® Taq DNA Polymerase High Fidelity (Invitrogen) and fragment size was verified by electrophoresis using E-Gel® 1.2% agarose (Invitrogen). Fragments were cloned into pCR™2.1 TOPO® (Invitrogen), transformed into One Shot® TOP10 Chemically Competent E. coli (Invitrogen), and selected on LB-agar plates containing 100 μg/ml ampicillin. Individual colonies were grown in LB broth, DNA was isolated using QIAprep® Spin Miniprep Kit (Qiagen), and the inserted fragment was verified by EcoRI digestion followed by electrophoresis using E-Gel® 1.2% agarose (Invitrogen). To insert the HIV-1 LTR into the vector multiple cloning region, the resultant plasmids and pGL4.77[hRlucP/Hygro] were dually digested with NheI and XhoI (New England Biolabs), ligated using ExpressLink™ T4 DNA Ligase (Invitrogen), transformed into One Shot® TOP10 Chemically Competent E. coli (Invitrogen), and selected on LB-agar plates containing 100 μg/ml ampicillin. Clones were picked and DNA isolated using QIAprep® Spin Miniprep Kit (Qiagen) and the inserted fragment was verified by NheI/XhoI digestion followed by electrophoresis using E-Gel® 1.2% agarose (Invitrogen). The resultant plasmid, pGL4.77-LTR, was verified by sequencing at GENEWIZ (South Plainfield, NJ). […] Luciferase activity was quantified using Renilla Luciferase Assay System (Promega, Madison, WI) and results were normalized to the vehicle-treated control."}, "[3]": {"tested_on": "HIV-1 RNA in ACH-2 cells", "assay": "HIV activation assay in ACH-2 model of latency (qRT-PCR)", "format": "cell-based", "settings": "24 h; for Induction of HIV-1 transcription in ACH-2 cells (in words): 30 μM, qRT-PCR (Fig 3); for EC10X, ACH-2: concentration for 10-fold increase in HIV-1 RNA by qRT-PCR", "description": "ACH-2 cells were maintained in RPMI-1640 medium without phenol red and with 10% FBS at 37°C in a 5% CO2 atmosphere. Cells were plated at 5000/well in 96-well round-bottom plated and test compounds were added in a final concentration of 0.5% DMSO, in duplicate. Cells were incubated for 24 h at 37°C, 5% CO2, then pelleted at 2000 × g for 5 min followed by washing in 0.1 ml PBS. RNA was isolated using Invitrogen PureLink 96 RNA Purification Kit with vacuum manifold per the manufacturer’s instructions, including DNase I treatment. HIV-1 transcripts were detected using TaqMan® RNA-to-CT™ 1-step kit (Applied Biosystems, Foster City, CA) and primers/probe specific to gag (SK38 forward: 5ʹ-[…]-3ʹ; SK39 reverse: 5ʹ-[…]-3ʹ; SK19 probe: 5ʹ-6FAM […] TAMRA-3ʹ) or tat (forward: 5ʹ-[…]-3ʹ; reverse: 5ʹ-[…]-3ʹ; probe: 5ʹ-6FAM […]-3ʹ). GAPDH RNA was monitored in all assays as an endogenous control for selectivity using a pre-developed TaqMan assay reagent (Applied Biosystems, Foster City, CA). RNA was quantified on an Applied Biosystems 7900HT. PCR replicates were performed for each biological replicate. Viral RNA expression was normalized to GAPDH RNA and data are expressed as the change from vehicle-only control wells."}, "[4]": {"tested_on": "Caco-2 cells", "assay": "Caco-2 assay", "format": "in vitro ADME, human", "settings": "10 μM, 1 h, top to bottom chamber", "description": "Caco-2 cells obtained from ATCC were plated on filters of a 24-well Boyden chamber and allowed to replicate for five days. Prior to initiating a study, the integrity of the cell layer was assessed by measuring the transepithelial electrical resistance (TEER) values. […] After 1h, medium was removed from the bottom chamber. After completion of the assay, the integrity of the cell layer was measured by transfer of the fluorescent dye, Lucifer yellow, across the cell layer. Samples taken from the apical chamber at the start of the study and from the basal chamber at the end of the study were assessed for drug levels using LC-MS/MS technology and used to calculate the apparent permeability (Papp)."}, "[5]": {"assay": "Protein binding, human plasma (ultrafiltration)", "format": "in vitro ADME", "settings": "human, plasma, pH 7.4", "protocol": "Binding of test compound to plasma proteins was estimated by incubation of test compounds with mouse or human plasma. Human plasma was obtained from BioreclamationIVT (Westbury, NY). […] After a 15 min incubation at 37°C, triplicate aliquots of the incubation mixtures were transferred to a Millipore Multiscreen Ultracel-10 filter plate (10 kDa molecular mass cut off, EMD Millipore, Billerica, MA). The plate was centrifuged for 60 min at 3000 × g and 37°C. After centrifugation, aliquots of both the ultrafiltrates as well as the incubation mixtures prior to ultrafiltration were analyzed by LC-MS/MS to quantify the concentrations of test compound and reference compounds."}},
  "data": [
    {"compound": "Nc1ccc2[nH]c(-c3ccc(-c4nc5ccc(N)cc5o4)cc3)nc2c1", "note": "[Compound 2]", "values": [
      {"measurement": "Intracellular Gag, percentage of positive cells", "setting": "[1]", "value": 33.9, "unit": "%"},
      {"measurement": "Transcription driven by the HIV-1 LTR (in words)", "setting": "[2]", "value": "did not significantly increase transcription"},
      {"measurement": "Induction of HIV-1 transcription in ACH-2 cells (in words)", "setting": "[3]", "value": "induced HIV-1 transcription"},
      {"measurement": "EC10X, ACH-2", "setting": "[3]", "value": "970 ± 500", "unit": "nM"},
      {"measurement": "Caco-2 Papp", "setting": "[4]", "value": "4.8 10^−6 cm/s"},
      {"measurement": "Caco-2 Papp", "setting": "[4]; listed as compound 2", "value": "38 10^−6 cm/s"},
      {"measurement": "fraction unbound at 15 min, 10 μM", "setting": "[5]", "value": "< 0.003"}
    ]},
    {"compound": "Nc1ccc2[nH]c(-c3ccc(-c4nc5cc(N)ccc5o4)cc3)nc2c1", "note": "[Compound 1, 2-(4-(5-amino-1H-benzimidazol-2-yl)phenyl)benzoxazol-5-amine]", "values": [
      {"measurement": "Intracellular Gag, percentage of positive cells", "setting": "[1]", "value": 65.6, "unit": "%"},
      {"measurement": "Fold more ACH-2 cells induced than with SAHA or JQ1", "setting": "[1]; SAHA or JQ1 used at active concentrations", "value": "approximately 2 fold"},
      {"measurement": "ACH-2 cells in which HIV-1 expression was induced", "setting": "[1]; text statement (Fig 4)", "value": "over 70%"},
      {"measurement": "Transcription driven by the HIV-1 LTR (in words)", "setting": "[2]", "value": "did not significantly increase transcription"},
      {"measurement": "Induction of HIV-1 transcription in ACH-2 cells (in words)", "setting": "[3]", "value": "induced HIV-1 transcription"},
      {"measurement": "EC10X, ACH-2", "setting": "[3]", "value": "390 ± 120", "unit": "nM"},
      {"measurement": "Caco-2 Papp", "setting": "[4]", "value": "38 10^−6 cm/s"},
      {"measurement": "Caco-2 Papp", "setting": "[4]; listed as compound 1", "value": "4.8 10^−6 cm/s"},
      {"measurement": "fraction unbound at 15 min, 10 μM", "setting": "[5]", "value": "< 0.01"}
    ]}
  ]
}
